Measured values published in patent US10954246B2, “Compound of EOC315 Mod.I crystal form and preparation method thereof” (Taizhou EOC Pharma Co., Ltd., priority 2017, dated 2021).
Structures can show the parent of a compound that is named as a salt.

Assay: Long-term stability study (25° C., RH 60%)
Assay type: physicochemical
Conditions: for Related substance Impurity 5 / Related substance Impurity 6 / Related substance Maximum single impurity / Related substance Impurity 1 / Related substance Impurity 2 / Related substance Impurity 3 / Related substance Total impurity / Related substance Impurity 4 / Crystalline form: 25° C./RH 60%; for Related substance Impurity 5 / Related substance Impurity 6: limit 0.10%; for Related substance Maximum single impurity: limit 0.15%; for Related substance Impurity 1 / Related substance Impurity 2 / Related substance Impurity 3: limit 0.17%; for Related substance Total impurity: limit 1.0%; for Related substance Impurity 4: limit 3.0%; for Crystalline form: limit ModI
Method: Long-term stability over twelve months was evaluated at 25° C. and a relative humidity of 60%; or accelerated stability over six months was evaluated at 40° C. and a relative humidity of 75%.

CNC(=O)c1cc(OCc2nnc(Nc3ccc(Cl)cc3)c3ccoc23)ccn1 [EOC315 crystalline form Mod. I, 4-(4-chloroanilino)-7-(2-methylaminocarbonyl-4-oxymethyl)pyridylfuro[2,3-d]pyridazine mesylate]
Related substance Impurity 5 (Month 0, listed as 151211): 0.02% | Related substance Impurity 6 (Month 0, listed as 151211): 0.01% | Related substance Impurity 5 (Month 0, listed as 151212): 0.01% | Related substance Impurity 6 (Month 0, listed as 151212): Undetected | Related substance Impurity 5 (Month 0, listed as 151213): Undetected | Related substance Impurity 6 (Month 0, listed as 151213): Undetected | Related substance Maximum single impurity (Month 0, listed as 151211): 0.0079% | Related substance Maximum single impurity (Month 0, listed as 151212): 0.012% | Related substance Maximum single impurity (Month 0, listed as 151213): 0.0085% | Related substance Impurity 1 (Month 0): Undetected | Related substance Impurity 2 (Month 0): Undetected | Related substance Impurity 3 (Month 0, listed as 151211): 0.016% | Related substance Impurity 3 (Month 0, listed as 151212): 0.011% | Related substance Impurity 3 (Month 0, listed as 151213): 0.011% | Related substance Total impurity (Month 0, listed as 151211): 0.53% | Related substance Total impurity (Month 0, listed as 151212): 0.65% | Related substance Total impurity (Month 0, listed as 151213): 0.52% | Related substance Impurity 4 (Month 0, listed as 151211): 0.36% | Related substance Impurity 4 (Month 0, listed as 151212): 0.46% | Related substance Impurity 4 (Month 0, listed as 151213): 0.35% | Crystalline form (Month 0): ModI | Related substance Impurity 6 (Month 3): Undetected | Related substance Impurity 5 (Month 3, listed as 151211): 0.01% | Related substance Impurity 5 (Month 3, listed as 151212): 0.02% | Related substance Impurity 5 (Month 3, listed as 151213): 0.01% | Related substance Maximum single impurity (Month 3): Undetected | Related substance Impurity 1 (Month 3): Undetected | Related substance Impurity 2 (Month 3): Undetected | Related substance Impurity 3 (Month 3): Undetected | Related substance Total impurity (Month 3, listed as 151211): 0.5% | Related substance Total impurity (Month 3, listed as 151212): 0.6% | Related substance Total impurity (Month 3, listed as 151213): 0.5% | Related substance Impurity 4 (Month 3, listed as 151211): 0.4% | Related substance Impurity 4 (Month 3, listed as 151212): 0.5% | Related substance Impurity 4 (Month 3, listed as 151213): 0.38% | Related substance Impurity 6 (Month 6): 0.01% | Related substance Impurity 5 (Month 6, listed as 151211): Undetected | Related substance Impurity 5 (Month 6, listed as 151212): 0.02% | Related substance Impurity 5 (Month 6, listed as 151213): Undetected | Related substance Maximum single impurity (Month 6, listed as 151211): 0.013% | Related substance Maximum single impurity (Month 6, listed as 151212): 0.070% | Related substance Maximum single impurity (Month 6, listed as 151213): 0.016% | Related substance Impurity 1 (Month 6): Undetected | Related substance Impurity 2 (Month 6, listed as 151211): 0.0028% | Related substance Impurity 3 (Month 6, listed as 151211): 0.099% | Related substance Impurity 2 (Month 6, listed as 151212): Undetected | Related substance Impurity 3 (Month 6, listed as 151212): 0.031% | Related substance Impurity 2 (Month 6, listed as 151213): Undetected | Related substance Impurity 3 (Month 6, listed as 151213): 0.033% | Related substance Total impurity (Month 6, listed as 151211): 0.73% | Related substance Total impurity (Month 6, listed as 151212): 0.88% | Related substance Total impurity (Month 6, listed as 151213): 0.63% | Related substance Impurity 4 (Month 6, listed as 151211): 0.42% | Related substance Impurity 4 (Month 6, listed as 151212): 0.54% | Related substance Impurity 4 (Month 6, listed as 151213): 0.40% | Crystalline form (Month 6): ModI | Related substance Impurity 5 (Month 9, listed as 151211): 0.02% | Related substance Impurity 6 (Month 9, listed as 151211): Undetected | Related substance Impurity 5 (Month 9, listed as 151212): 0.01% | Related substance Impurity 6 (Month 9, listed as 151212): 0.01% | Related substance Impurity 5 (Month 9, listed as 151213): Undetected | Related substance Impurity 6 (Month 9, listed as 151213): Undetected | Related substance Maximum single impurity (Month 9, listed as 151211): 0.013% | Related substance Maximum single impurity (Month 9, listed as 151212): Undetected | Related substance Maximum single impurity (Month 9, listed as 151213): Undetected | Related substance Impurity 1 (Month 9): Undetected | Related substance Impurity 2 (Month 9): Undetected | Related substance Impurity 3 (Month 9): Undetected | Related substance Total impurity (Month 9, listed as 151211): 0.61% | Related substance Total impurity (Month 9, listed as 151212): 0.77% | Related substance Total impurity (Month 9, listed as 151213): 0.58% | Related substance Impurity 4 (Month 9, listed as 151211): 0.43% | Related substance Impurity 4 (Month 9, listed as 151212): 0.56% | Related substance Impurity 4 (Month 9, listed as 151213): 0.42% | Related substance Impurity 5 (Month 12, listed as 151211): 0.01% | Related substance Impurity 6 (Month 12, listed as 151211): 0.03% | Related substance Impurity 5 (Month 12, listed as 151212): Undetected | Related substance Impurity 6 (Month 12, listed as 151212): 0.02% | Related substance Impurity 5 (Month 12, listed as 151213): 0.01% | Related substance Impurity 6 (Month 12, listed as 151213): Undetected | Related substance Maximum single impurity (Month 12): Undetected | Related substance Impurity 1 (Month 12): Undetected | Related substance Impurity 2 (Month 12): Undetected | Related substance Impurity 3 (Month 12): Undetected | Related substance Total impurity (Month 12, listed as 151211): 0.63% | Related substance Total impurity (Month 12, listed as 151212): 0.80% | Related substance Total impurity (Month 12, listed as 151213): 0.58% | Related substance Impurity 4 (Month 12, listed as 151211): 0.46% | Related substance Impurity 4 (Month 12, listed as 151212): 0.58% | Related substance Impurity 4 (Month 12, listed as 151213): 0.42% | Crystalline form (Month 12): ModI | stability of the crystalline form (conclusion from tables 4 and 5) (long-term and accelerated stability): thermodynamically stable form
